Structures can show the parent of a compound that is named as a salt. Activity calls are given as the source filed them.
Tests used:
[1] = biological target: T1, RNA-binding protein pos-1 (Caenorhabditis elegans, UniProt G5EF15); test: disruptors of C. elegans POS-1 RNA interaction – biochemical, fluorescence polarization, dose response (AID 1964);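 further: purified POS-1 fused to maltose binding protein made in E. coli; potency of compounds blocking POS-1 binding to fluorescent RNA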
T1 sequence (G5EF15 whole entry): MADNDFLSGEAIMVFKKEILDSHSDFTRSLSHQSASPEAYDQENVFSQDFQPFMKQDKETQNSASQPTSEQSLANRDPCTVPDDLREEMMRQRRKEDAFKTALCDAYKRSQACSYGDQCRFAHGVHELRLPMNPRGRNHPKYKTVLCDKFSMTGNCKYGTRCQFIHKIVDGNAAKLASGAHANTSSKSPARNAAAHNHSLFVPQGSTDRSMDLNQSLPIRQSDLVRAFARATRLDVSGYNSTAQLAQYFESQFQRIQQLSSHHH

[2] = biological target: T2, Zinc finger protein mex-5 (Caenorhabditis elegans, UniProt Q9XUB2); test: potency of MEX-5 RNA-binding blockers – biochemical, C. elegans, fluorescence polarization, dose response (AID 1960)
T2 sequence (Q9XUB2 whole entry): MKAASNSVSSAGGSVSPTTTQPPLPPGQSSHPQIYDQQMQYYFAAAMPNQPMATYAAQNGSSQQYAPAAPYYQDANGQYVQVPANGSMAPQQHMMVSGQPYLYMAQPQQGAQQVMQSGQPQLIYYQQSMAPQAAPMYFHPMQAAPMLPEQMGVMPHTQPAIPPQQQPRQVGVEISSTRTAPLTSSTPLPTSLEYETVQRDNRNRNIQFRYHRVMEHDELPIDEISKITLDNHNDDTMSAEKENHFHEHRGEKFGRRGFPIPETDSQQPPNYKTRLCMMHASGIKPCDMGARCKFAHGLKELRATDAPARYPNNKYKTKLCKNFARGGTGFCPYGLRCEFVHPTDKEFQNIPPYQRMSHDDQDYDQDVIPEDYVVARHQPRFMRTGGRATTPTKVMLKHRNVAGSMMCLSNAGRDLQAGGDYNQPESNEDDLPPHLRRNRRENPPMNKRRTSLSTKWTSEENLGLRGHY

cells = format: functional
Cytochrome P450 2C9 = Cytochrome P450 2C9 (Homo sapiens, UniProt P11712)
Cytochrome P450 2C9, sequence (P11712 whole entry): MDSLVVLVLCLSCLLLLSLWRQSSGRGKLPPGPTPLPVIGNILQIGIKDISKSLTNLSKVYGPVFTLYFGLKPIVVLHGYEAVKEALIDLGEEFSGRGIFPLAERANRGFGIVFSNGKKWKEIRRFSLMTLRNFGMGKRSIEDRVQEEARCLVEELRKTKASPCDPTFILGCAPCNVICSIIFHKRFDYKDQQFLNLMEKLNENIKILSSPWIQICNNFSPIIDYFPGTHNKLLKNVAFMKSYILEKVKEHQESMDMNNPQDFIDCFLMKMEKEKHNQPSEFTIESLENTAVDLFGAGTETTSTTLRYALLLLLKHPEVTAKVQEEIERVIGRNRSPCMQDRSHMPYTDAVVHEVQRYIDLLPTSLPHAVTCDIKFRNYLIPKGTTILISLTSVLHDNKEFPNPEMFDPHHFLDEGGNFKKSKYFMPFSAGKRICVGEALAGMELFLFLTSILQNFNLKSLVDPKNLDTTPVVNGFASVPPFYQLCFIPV

[3] = alpha-synuclein stem-loop luciferase translation blockers – H4 neuroglioma cells, luminescence, confirmation (AID 1988); format: functional, cell-based
[4] = Luminescence Cell-Based Dose Response HTS to Identify Inhibitors of 5'UTR Stem-Loop Driven Prion Protein mRNA Translation in H4 Neuroglioblastoma Cells. [Related pubchem assays: 1827 (Project Summary), 1813 (Primary HTS)]; format: functional
Cytochrome P450 3A4 = Cytochrome P450 3A4 (Homo sapiens, UniProt P08684);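 further: CYP3A4 tested as one member of a cytochrome P450 panel screen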
Cytochrome P450 3A4, sequence (P08684 whole entry): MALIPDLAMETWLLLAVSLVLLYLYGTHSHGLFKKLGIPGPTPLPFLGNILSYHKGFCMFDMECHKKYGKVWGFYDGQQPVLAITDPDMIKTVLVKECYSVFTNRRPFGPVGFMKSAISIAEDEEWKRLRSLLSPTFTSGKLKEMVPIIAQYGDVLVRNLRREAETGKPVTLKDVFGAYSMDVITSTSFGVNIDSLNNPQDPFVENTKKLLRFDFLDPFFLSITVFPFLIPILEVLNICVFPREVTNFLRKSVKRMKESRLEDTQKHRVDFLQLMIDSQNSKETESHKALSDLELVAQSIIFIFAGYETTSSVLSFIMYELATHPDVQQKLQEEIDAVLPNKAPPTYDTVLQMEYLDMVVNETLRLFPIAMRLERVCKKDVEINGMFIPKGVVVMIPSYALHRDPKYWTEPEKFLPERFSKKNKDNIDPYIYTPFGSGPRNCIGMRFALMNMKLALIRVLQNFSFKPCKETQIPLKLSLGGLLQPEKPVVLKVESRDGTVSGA

[5] = luciferase reporter signal suppression in cells – H4 neuroglioma cells, luminescence, dose response (AID 1990); format: functional, cell-based
[6] = biological target: T3, Corticotropin-releasing factor receptor 2/Corticotropin-releasing factor-binding protein (Homo sapiens, UniProt P24387+Q13324); test: activators of CRF receptor 2 with binding protein – uHTS hits, confirmation (AID 602473); format: functional; details: read-out: EC50_Mean
T3 sequence (Q13324 whole entry): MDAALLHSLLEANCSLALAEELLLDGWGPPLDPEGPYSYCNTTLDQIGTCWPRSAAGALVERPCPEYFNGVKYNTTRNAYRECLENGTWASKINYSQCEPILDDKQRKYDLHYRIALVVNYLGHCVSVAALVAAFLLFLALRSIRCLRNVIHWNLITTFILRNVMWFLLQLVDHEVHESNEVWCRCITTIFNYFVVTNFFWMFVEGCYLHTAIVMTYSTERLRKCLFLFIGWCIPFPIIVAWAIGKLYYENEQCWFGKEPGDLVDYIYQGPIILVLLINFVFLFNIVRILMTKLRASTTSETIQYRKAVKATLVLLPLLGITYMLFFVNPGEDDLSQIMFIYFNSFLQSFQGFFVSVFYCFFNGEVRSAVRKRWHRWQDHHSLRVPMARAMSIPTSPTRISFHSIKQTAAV
T3 sequence (P24387 whole entry): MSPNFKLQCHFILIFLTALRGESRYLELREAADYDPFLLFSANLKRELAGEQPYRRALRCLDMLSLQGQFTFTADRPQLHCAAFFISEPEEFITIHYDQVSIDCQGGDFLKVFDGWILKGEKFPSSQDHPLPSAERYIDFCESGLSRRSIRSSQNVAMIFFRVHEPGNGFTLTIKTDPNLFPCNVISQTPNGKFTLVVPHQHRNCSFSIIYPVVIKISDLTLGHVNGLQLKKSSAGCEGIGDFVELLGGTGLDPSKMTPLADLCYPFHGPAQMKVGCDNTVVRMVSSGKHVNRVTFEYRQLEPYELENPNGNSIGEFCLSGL

[7] = biological target: T3, Corticotropin-releasing factor receptor 2/Corticotropin-releasing factor-binding protein; test: Dose Response confirmation of uHTS hits for small molecule antagonists of the CRF-binding protein and CRF-R2 receptor complex.; format: functional; details: read-out: IC50_Mean
Cytochrome P450 2C19 = Cytochrome P450 2C19 (Homo sapiens, UniProt P33261); test: Cytochrome panel assay with activity outcomes. Panel member name: p450-cyp2c19 Compounds with AC50 equal or less than 10 uM are considered active; format: functional; details: read-out: AC50
Cytochrome P450 2C19, sequence (P33261 whole entry): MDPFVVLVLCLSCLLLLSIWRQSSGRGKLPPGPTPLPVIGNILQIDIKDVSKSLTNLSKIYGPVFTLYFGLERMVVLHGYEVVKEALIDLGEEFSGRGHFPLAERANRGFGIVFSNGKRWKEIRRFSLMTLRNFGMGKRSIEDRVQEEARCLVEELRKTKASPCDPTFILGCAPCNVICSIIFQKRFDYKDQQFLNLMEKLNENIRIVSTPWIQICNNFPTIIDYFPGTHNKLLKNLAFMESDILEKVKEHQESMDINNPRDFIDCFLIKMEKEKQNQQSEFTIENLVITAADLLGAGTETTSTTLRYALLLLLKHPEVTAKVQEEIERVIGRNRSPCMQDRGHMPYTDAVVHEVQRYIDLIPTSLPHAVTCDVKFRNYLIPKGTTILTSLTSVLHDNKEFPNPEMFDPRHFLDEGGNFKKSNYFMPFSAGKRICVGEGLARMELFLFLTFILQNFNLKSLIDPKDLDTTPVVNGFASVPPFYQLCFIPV

[8] = biological target: T4, Heat shock factor protein 1 (Mus musculus, UniProt P38532); test: decrease of HSF1-responsive luciferase luminescence – cell-based, NIH3T3, dose retest, confirmation (AID 2382); format: functional;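 further: NIH3T3 fibroblasts with HSF1-driven luciferase reporter stressed by proteasome inhibitor MG132; luminescence from HSF1-driven luciferase expression after 8 hours of MG132 stress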
T4 sequence (P38532 whole entry): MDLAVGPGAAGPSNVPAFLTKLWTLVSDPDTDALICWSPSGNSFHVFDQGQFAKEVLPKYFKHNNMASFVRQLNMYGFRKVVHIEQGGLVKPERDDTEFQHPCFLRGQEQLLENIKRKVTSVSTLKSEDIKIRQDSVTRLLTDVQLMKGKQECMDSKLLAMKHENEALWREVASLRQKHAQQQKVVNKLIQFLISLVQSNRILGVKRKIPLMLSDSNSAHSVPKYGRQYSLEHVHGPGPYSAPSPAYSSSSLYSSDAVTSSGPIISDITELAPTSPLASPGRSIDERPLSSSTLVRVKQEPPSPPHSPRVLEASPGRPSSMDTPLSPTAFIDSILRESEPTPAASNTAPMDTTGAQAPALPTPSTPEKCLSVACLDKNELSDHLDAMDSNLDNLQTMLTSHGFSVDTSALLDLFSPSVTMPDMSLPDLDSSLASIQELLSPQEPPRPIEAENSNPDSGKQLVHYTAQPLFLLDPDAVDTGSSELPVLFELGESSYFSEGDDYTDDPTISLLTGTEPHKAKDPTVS

Cytochrome P450 2D6 = Cytochrome P450 2D6 (Homo sapiens, UniProt P10635);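 further: CYP2D6 member of a cytochrome P450 panel assay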
Cytochrome P450 2D6, sequence (P10635 whole entry): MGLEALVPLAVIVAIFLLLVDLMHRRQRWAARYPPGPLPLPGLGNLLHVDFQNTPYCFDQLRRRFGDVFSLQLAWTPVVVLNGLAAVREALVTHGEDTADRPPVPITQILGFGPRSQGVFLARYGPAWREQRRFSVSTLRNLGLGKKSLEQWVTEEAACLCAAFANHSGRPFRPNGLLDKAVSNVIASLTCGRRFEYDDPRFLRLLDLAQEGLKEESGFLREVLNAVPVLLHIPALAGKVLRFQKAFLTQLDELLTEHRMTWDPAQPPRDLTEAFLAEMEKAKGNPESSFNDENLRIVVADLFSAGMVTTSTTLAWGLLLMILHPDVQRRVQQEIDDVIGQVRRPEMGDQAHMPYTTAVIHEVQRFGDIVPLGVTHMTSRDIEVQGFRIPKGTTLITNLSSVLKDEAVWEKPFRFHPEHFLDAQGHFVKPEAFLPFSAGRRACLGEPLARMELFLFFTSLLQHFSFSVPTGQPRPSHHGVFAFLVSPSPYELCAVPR

Cytochrome P450 1A2 = biological target: T5, Cytochrome P450 1A2 (Homo sapiens, UniProt P05177);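 further: PubChem cytochrome P450 panel assay, CYP1A2 panel member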
T5 sequence (P05177 whole entry): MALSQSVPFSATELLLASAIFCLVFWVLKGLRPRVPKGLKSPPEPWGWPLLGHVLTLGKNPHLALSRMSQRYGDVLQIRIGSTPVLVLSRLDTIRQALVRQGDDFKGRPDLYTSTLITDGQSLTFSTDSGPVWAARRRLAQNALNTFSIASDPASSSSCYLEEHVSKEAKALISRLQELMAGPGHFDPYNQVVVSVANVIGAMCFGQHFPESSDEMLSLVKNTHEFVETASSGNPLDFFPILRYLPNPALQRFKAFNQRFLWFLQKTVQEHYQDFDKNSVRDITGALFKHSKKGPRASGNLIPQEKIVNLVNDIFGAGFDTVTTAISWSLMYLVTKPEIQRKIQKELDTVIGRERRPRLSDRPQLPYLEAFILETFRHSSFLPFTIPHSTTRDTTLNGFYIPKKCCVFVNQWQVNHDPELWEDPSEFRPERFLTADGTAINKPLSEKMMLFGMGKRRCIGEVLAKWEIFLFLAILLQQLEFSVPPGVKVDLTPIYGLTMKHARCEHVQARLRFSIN

[9] = NIH3T3 cell viability loss – ATP luminescence, mouse fibroblasts, counter-screen, dose response (AID 2010); format: functional, cell-based;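 further: cells exposed to compound for about 90 hours before reading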
[10] = Trypanosoma cruzi growth suppression in host cells – NIH3T3 host cells, beta-gal luminescence, confirmation (AID 2044); format: functional, cell-based;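 further: intracellular parasites grown in NIH/3T3 mouse fibroblasts as host cells; luminescent beta-galactosidase reporter signal from transgenic T. cruzi replicating inside host cells; inhibitors lower the luminescence signal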

Cc1ccccc1C1=N/C(=C/c2cccs2)C(=O)O1
EC50 [1]: > 300 µM (not active) | EC50 [2]: 39.1 µM (active)

COC(=O)C1=C(N)OC2=C(C(=O)CC(C)(C)C2)C1c1cccnc1 (stereo not given)
IC50 (cells): > 50 µM (active)

COc1ccc(NC(=O)c2ccc(C(=O)c3cc(OC)ccc3OC)cc2)cc1
AC50 (Cytochrome P450 2C9): 22.4 µM (inconclusive)

COC(=O)c1nn(-c2ccccc2)c(-c2ccccc2)c1C(=O)c1ccccc1
AC50 (Cytochrome P450 2C9): 15.8 µM (inconclusive) | EC50 [3]: > 120 µM (not active) | EC50 [4]: > 120 µM (not active) | AC50 (Cytochrome P450 3A4): 14.1 µM (inconclusive) | EC50 [5]: > 120 µM (not active)

Cc1ccc(Sc2c(C=O)c3ccccc3n2C)cc1
EC50 [6]: > 53 µM (inactive) | IC50 [7]: > 47.1 µM (inactive)

Fc1ccc([C@H]2CCNC[C@H]2COc2ccc3c(c2)OCO3)cc1
AC50 (Cytochrome P450 2C9): 2 µM (inconclusive)

Cc1ccc(O)c(-c2cc(C(F)(F)C(F)F)nc(-c3ccccc3)n2)c1
AC50 (Cytochrome P450 2C9): 7.08 µM (inconclusive) | AC50 (Cytochrome P450 2C19): 14.1 µM (inconclusive) | AC50 (Cytochrome P450 3A4): 8.91 µM (inconclusive)

N#CC1=C(N)Oc2cc(N)ccc2C1c1ccccc1Cl (stereo not given)
EC50 [8]: > 195 µM (not active)

CSc1ccc(CN(C)Cc2cc(=O)oc3c(C)c(C)ccc23)cc1
EC50 [8]: > 195 µM (not active)

O=C(Nc1cccc2ncccc12)c1ccc(-c2ccc(Br)cc2)o1
AC50 (Cytochrome P450 2C9): 0.282 µM (inconclusive) | AC50 (Cytochrome P450 2D6): 12.6 µM (inconclusive)

C=CCNC(=S)NNC(=O)c1cc(-c2cccnc2)nc2ccccc12
EC50 [8]: > 195 µM (not active)

Cc1ccc(NC(=O)/C(=C\c2cccnc2)NC(=O)c2ccco2)cc1
AC50 (Cytochrome P450 2C9): 20 µM (inconclusive) | AC50 (Cytochrome P450 2C19): 35.5 µM (inconclusive)

CCN(CC)CCN/C=C1\C(=O)NC(=O)N(CCc2ccccc2)C1=O
EC50 [1]: > 300 µM (not active) | EC50 [2]: > 300 µM (not active)

CCN1C(=O)NC(=O)/C(=C\c2cn(CC(=O)O)c3ccccc23)C1=O
EC50 [1]: > 300 µM (not active) | EC50 [2]: > 300 µM (not active)

O=C1c2ccc3c4c(ccc(c24)C(=O)N1c1ccc2ccccc2c1)CC3
AC50 (Cytochrome P450 2C9): 3.98 µM (inconclusive) | AC50 (Cytochrome P450 2C19): 2.24 µM (inconclusive) | EC50 [3]: 119 µM (active) | EC50 [4]: 36.6 µM (active) | EC50 [5]: 11.6 µM (active)

COC(=O)C1CC(Cl)CN1c1ncc(C(F)(F)F)cc1Cl (stereo not given)
EC50 [6]: > 53 µM (inactive) | IC50 [7]: > 47.1 µM (inactive)

CC(C)CC(=O)Nc1c2c(nn1-c1ccc(F)cc1)C[S+]([O-])C2 (stereo not given)
EC50 [8]: > 195 µM (not active)

CCOCCOC(=O)c1ccc(NC(=O)C2COc3ccccc3O2)cc1 (stereo not given)
IC50 (cells): 15.2 µM (active)

CCn1ncc2c(OCc3ccc(C#N)cc3)cc(C)nc21
EC50 [3]: 61.8 µM (active) | EC50 [4]: 24.9 µM (active) | EC50 [5]: 21.5 µM (active)

CC(C)NC(=O)N1CCCC2(CCN(C(=O)Oc3ccccc3)CC2)C1
AC50 (Cytochrome P450 1A2): 12.6 µM (inconclusive) | AC50 (Cytochrome P450 2C9): 12.6 µM (inconclusive) | AC50 (Cytochrome P450 3A4): 25.1 µM (inconclusive)

CC(C)(C)n1nc2c(c1NC(=O)Cc1ccccc1)CS(=O)(=O)C2
EC50 [6]: > 53 µM (inactive) | IC50 [7]: > 47.1 µM (inactive)

NS(=O)(=O)c1ccc(/N=N\c2ncccc2O)cc1
AC50 (Cytochrome P450 1A2): 2 µM (inconclusive) | AC50 (Cytochrome P450 2C9): 6.31 µM (inconclusive) | AC50 (Cytochrome P450 3A4): 3.98 µM (inconclusive)

O=C(NNc1nc2ccccc2s1)Nc1ccccc1
EC50 [8]: > 195 µM (not active)

Cc1cccc2cc(C#N)c(N3CCN(C)CC3)nc12
EC50 [6]: > 53 µM (inactive) | IC50 [7]: > 47.1 µM (inactive)

O=C(CCl)NC(Cc1ccccc1)c1ccccc1 (stereo not given)
EC50 [8]: 17.1 µM (active)

Cc1nc2c(sc3nc(N4CCOCC4)c4c(c32)CC(C)(C)OC4)c(-c2ccc(Cl)cc2)c1C(=O)O
EC50 [8]: > 195 µM (not active)

Cn1cc(C(=O)c2ccccc2)c2ccccc21
EC50 [6]: > 53 µM (inactive) | IC50 [7]: > 47.1 µM (inactive)

O=C(Nc1ccc(Cl)c(C(F)(F)F)c1)C1CCCN(S(=O)(=O)c2c[nH]cn2)C1 (stereo not given)
AC50 (Cytochrome P450 2C9): 0.501 µM (inconclusive)

C/C(=N\Nc1cccc2cccnc12)c1ccccn1
IC50 (cells): 13.8 µM (active) | EC50 [9]: > 60 µM (not active) | EC50 [10]: 2.51 µM (active)

Cn1c(=O)c2nc(N/N=C(/C#N)C(N)=O)[nH]c2n(C)c1=O
EC50 [1]: > 300 µM (not active) | EC50 [2]: 52.4 µM (active)

Cc1oc(/N=C/c2ccc(O)cc2O)c(C#N)c1C
EC50 [1]: > 300 µM (not active) | EC50 [2]: > 300 µM (not active)

CCO/C(C)=N/n1c2nc3ccccc3nc2c2c(=O)n(CC(C)C)c(C)nc21
AC50 (Cytochrome P450 2C9): 12.6 µM (inconclusive)

COc1ccc2c3c1O[C@H]1C[C@@H](O)C=C[C@@]31CCN(C)C2 [GALANTAMINE HYDROBROMIDE]
EC50 [3]: 11.1 µM (active) | EC50 [4]: > 120 µM (not active) | EC50 [5]: > 120 µM (not active)

From ChEMBL document CHEMBL1201862, “PubChem BioAssay data set” (2004)
